Data from ChEMBL document CHEMBL5154740, “Novel Aurora A and Protein Kinase C (α, β1, β2, and θ) Multitarget Inhibitors: Impact of Selenium Atoms on the Potency and Selectivity” (J Med Chem, 2022).

What was measured:
[1] = biological target: T1, Protein kinase C theta type (Homo sapiens, UniProt Q04759); assay: Inhibition of full length human PKCtheta using 5-FAM-RFARKGSLRQKNV-OH peptide substrate incubated for 30 mins by IMAP kinase assay
Target sequence in this assay (Q04759 whole entry): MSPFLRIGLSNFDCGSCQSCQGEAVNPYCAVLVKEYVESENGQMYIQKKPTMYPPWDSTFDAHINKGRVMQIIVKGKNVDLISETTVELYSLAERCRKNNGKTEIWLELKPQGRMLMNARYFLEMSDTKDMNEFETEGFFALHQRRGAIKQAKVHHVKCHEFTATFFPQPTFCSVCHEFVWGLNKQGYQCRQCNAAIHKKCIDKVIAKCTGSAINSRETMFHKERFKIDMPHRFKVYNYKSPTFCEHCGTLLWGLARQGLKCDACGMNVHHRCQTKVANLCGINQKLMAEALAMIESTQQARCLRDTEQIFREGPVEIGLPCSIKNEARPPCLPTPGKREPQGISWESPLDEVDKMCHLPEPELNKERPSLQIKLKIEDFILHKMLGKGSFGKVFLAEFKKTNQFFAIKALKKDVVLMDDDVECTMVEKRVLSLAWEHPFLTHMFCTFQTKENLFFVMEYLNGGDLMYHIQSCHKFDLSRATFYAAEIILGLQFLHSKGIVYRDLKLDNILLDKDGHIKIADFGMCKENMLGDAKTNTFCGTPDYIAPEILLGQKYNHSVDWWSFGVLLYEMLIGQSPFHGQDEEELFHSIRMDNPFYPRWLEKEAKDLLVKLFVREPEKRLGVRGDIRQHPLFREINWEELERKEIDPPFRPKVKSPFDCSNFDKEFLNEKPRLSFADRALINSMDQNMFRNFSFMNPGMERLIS

[2] = biological target: Protein kinase C alpha type (Homo sapiens) (UniProt P17252); assay: Inhibition of PKCalpha (unknown origin) by Z'LYTE screening method relative to control; settings: concentration not given here
[3] = biological target: Serine/threonine-protein kinase D3 (Homo sapiens, UniProt O94806); assay: Inhibition of PKCnu (unknown origin) by IMAP kinase assay
[4] = biological target: T2, Serine/threonine-protein kinase D3 (Homo sapiens) (UniProt O94806); assay: Inhibition of PKCnu (unknown origin) by Z'LYTE screening method relative to control; settings: concentration not given here
T2 sequence (whole entry): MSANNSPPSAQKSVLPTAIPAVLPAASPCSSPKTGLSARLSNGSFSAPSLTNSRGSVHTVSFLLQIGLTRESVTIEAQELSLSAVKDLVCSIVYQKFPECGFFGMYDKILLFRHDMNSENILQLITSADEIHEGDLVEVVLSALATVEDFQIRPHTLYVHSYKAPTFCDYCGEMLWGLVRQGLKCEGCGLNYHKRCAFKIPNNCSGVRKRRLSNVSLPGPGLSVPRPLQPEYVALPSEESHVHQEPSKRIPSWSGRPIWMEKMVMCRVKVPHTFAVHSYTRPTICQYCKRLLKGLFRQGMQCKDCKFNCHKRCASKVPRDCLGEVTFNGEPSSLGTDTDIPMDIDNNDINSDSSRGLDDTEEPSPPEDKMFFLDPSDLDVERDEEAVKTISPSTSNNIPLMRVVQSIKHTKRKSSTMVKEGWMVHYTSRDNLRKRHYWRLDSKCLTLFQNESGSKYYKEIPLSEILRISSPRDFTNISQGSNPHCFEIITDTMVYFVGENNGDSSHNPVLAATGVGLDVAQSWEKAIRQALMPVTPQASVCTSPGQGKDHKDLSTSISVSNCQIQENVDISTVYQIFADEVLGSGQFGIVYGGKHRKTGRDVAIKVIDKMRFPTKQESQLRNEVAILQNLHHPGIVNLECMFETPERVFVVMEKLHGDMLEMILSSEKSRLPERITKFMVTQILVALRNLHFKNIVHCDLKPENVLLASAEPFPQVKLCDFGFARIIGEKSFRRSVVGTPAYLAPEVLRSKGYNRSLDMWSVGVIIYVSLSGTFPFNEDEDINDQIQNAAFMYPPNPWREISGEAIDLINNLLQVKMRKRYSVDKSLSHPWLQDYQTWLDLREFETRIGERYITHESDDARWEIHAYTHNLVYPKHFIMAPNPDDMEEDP

[5] = biological target: T3, Protein kinase C epsilon type (Homo sapiens) (UniProt Q02156); assay: Inhibition of PKCepsilon (unknown origin) by Z'LYTE screening method relative to control; settings: concentration not given here
T3 sequence (whole entry): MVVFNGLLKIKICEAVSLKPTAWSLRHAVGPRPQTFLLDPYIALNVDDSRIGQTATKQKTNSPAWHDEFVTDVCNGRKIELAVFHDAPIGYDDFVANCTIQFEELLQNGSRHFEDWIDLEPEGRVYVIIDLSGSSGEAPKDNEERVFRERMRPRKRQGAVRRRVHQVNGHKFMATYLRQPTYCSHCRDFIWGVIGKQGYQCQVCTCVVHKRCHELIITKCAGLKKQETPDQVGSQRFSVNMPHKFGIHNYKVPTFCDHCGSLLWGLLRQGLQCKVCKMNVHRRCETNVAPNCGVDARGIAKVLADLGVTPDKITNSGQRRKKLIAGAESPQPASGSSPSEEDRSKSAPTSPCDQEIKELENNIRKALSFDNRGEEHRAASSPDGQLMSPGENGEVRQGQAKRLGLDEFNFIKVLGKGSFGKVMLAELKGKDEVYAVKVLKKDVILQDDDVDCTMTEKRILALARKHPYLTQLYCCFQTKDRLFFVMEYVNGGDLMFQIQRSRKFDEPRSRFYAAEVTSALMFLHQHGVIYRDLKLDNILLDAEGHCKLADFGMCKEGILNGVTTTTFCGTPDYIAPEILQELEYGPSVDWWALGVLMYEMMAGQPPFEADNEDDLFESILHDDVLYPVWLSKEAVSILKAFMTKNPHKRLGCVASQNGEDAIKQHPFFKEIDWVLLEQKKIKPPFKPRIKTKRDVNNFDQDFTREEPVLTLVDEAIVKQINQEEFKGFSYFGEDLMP

[6] = biological target: Protein kinase C epsilon type (Homo sapiens, UniProt Q02156); assay: Inhibition of PKCepsilon (unknown origin) by IMAP kinase assay
[7] = biological target: T4, Protein kinase C zeta type (Homo sapiens) (UniProt Q05513); assay: Inhibition of PKCzeta (unknown origin) by Z'LYTE screening method relative to control; settings: concentration not given here
T4 sequence (whole entry): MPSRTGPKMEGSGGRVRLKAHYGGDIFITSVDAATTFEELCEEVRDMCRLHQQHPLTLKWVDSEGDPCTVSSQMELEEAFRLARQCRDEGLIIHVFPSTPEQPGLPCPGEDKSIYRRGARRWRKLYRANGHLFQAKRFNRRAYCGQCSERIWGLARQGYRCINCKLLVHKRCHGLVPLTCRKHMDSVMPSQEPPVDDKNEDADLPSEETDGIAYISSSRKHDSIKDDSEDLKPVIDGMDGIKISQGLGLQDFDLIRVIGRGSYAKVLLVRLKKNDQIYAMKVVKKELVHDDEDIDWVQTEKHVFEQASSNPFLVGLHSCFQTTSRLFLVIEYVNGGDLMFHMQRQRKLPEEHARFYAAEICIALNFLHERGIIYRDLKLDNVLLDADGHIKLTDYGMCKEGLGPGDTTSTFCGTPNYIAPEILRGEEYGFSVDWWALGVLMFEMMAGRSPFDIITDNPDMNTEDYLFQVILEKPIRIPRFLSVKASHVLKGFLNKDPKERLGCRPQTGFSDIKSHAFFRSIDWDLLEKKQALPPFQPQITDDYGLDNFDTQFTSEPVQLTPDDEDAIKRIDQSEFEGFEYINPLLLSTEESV

[8] = biological target: T5, Serine/threonine-protein kinase D1 (Homo sapiens) (UniProt Q15139); assay: Inhibition of PKCmu (unknown origin) by Z'LYTE screening method relative to control; settings: concentration not given here
T5 sequence (whole entry): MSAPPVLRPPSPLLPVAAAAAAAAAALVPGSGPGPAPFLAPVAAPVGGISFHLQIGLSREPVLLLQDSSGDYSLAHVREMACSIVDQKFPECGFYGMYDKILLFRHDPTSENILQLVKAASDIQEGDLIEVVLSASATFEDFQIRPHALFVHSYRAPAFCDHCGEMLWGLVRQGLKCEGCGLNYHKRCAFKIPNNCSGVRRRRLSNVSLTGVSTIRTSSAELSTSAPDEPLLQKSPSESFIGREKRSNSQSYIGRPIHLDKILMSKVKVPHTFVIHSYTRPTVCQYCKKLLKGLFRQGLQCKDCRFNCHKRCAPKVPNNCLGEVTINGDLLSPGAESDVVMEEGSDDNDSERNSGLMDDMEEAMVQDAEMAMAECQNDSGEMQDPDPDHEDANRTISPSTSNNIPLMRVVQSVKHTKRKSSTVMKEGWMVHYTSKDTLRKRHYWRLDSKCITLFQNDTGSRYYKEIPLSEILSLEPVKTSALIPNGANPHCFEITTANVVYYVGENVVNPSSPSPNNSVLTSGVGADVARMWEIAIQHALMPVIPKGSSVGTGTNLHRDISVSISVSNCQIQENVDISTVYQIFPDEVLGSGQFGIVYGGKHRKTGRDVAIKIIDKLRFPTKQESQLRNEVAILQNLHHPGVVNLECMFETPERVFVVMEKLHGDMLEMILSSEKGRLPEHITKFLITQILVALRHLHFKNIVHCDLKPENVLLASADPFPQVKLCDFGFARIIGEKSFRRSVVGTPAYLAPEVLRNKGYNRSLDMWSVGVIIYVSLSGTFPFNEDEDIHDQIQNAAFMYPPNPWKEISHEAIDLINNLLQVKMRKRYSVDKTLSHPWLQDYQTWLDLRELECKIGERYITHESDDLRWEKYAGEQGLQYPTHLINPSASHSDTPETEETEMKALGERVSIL

[9] = biological target: Protein kinase C beta type (Homo sapiens) (UniProt P05771); assay: Inhibition of PKCbeta2 (unknown origin) by Z'LYTE screening method relative to control; settings: concentration not given here
Chain of Protein kinase C beta type (Homo sapiens) (P05771 2-671 limits assumed): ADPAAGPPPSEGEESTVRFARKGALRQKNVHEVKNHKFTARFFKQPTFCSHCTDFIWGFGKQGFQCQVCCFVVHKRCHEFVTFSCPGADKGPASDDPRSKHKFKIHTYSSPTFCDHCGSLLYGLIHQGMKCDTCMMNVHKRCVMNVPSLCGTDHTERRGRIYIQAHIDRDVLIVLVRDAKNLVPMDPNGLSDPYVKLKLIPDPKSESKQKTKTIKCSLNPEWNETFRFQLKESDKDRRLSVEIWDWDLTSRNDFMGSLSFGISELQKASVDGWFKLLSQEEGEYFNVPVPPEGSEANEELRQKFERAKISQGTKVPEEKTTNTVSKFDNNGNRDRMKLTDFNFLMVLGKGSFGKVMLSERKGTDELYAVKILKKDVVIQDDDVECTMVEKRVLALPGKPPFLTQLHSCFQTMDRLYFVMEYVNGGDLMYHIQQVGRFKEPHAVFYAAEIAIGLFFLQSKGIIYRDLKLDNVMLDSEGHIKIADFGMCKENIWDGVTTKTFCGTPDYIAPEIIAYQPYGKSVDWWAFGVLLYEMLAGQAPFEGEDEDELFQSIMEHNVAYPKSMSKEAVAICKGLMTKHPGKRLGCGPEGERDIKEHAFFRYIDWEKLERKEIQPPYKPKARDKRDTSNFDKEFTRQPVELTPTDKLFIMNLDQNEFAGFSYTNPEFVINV

[10] = biological target: Protein kinase C beta type (Homo sapiens) (UniProt P05771); assay: Inhibition of PKCbeta1 (unknown origin) by Z'LYTE screening method relative to control; settings: concentration not given here
Aurora kinase C = Aurora kinase C (Homo sapiens, UniProt Q9UQB9); assay: Inhibition of AURC (unknown origin)
Chain of Aurora kinase C (Q9UQB9 whole entry): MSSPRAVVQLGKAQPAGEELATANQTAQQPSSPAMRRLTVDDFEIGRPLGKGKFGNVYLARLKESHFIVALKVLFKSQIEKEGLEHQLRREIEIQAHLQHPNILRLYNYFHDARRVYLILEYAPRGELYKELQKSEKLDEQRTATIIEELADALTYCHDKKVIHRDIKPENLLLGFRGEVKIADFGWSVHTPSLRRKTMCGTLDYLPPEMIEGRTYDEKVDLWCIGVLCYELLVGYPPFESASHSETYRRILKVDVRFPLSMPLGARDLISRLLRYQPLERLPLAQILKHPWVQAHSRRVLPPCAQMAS

[11] = biological target: Protein kinase C beta type (Homo sapiens) (UniProt P05771); assay: Inhibition of PKCbeta1 (unknown origin) at 50 nM by Z'LYTE screening method relative to control
[12] = biological target: T6, Aurora kinase A (Homo sapiens) (UniProt O14965); assay: Inhibition of AURA (unknown origin) at 50 nM by Z'LYTE screening method relative to control
T6 sequence (whole entry): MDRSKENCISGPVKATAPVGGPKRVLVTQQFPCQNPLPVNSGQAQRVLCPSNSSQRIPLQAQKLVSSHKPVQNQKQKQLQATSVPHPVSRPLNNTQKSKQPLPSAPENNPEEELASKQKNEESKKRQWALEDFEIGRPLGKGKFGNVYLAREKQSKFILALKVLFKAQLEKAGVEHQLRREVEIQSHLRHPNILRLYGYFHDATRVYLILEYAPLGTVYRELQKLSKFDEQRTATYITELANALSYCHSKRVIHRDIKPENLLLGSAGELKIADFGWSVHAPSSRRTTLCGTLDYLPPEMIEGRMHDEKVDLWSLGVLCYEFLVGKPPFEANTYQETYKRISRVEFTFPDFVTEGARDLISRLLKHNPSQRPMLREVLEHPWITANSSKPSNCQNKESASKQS

[13] = biological target: Aurora kinase B (Homo sapiens) (UniProt Q96GD4); assay: Inhibition of AURB (unknown origin) at 50 nM by Z'LYTE screening method relative to control
Chain of Aurora kinase B (Homo sapiens) (Q96GD4 whole entry): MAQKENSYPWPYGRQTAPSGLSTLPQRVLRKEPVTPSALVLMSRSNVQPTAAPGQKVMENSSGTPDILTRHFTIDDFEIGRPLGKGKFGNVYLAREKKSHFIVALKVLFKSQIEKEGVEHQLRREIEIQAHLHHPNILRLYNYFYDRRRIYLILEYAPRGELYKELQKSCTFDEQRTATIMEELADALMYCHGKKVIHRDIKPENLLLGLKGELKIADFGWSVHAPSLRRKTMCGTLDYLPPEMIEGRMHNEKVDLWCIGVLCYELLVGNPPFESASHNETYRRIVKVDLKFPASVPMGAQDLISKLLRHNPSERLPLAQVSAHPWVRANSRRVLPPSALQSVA

[14] = biological target: Protein kinase C beta type (Homo sapiens) (UniProt P05771); assay: Inhibition of PKCbeta2 (unknown origin) at 50 nM by Z'LYTE screening method relative to control
[15] = biological target: T1, Protein kinase C theta type; assay: Inhibition of PKCtheta (unknown origin) at 50 nM by Z'LYTE screening method relative to control
Target sequence in this assay (Q04759 whole entry, looked up): as the sequence (Q04759 whole entry) above

[16] = biological target: Protein kinase C alpha type (Homo sapiens) (UniProt P17252); assay: Inhibition of PKCalpha (unknown origin) at 50 nM by Z'LYTE screening method relative to control
MDA-MB-231 = assay: Cytotoxicity against human MDA-MB-231/M cells assessed as reduction in cell viability incubated for 96 hrs by MTT assay; assay type: functional, cell-based; settings: MDA-MB-231, 96 h
4T1 = assay: Cytotoxicity against mouse 4T1 cells assessed as reduction in cell viability incubated for 96 hrs by MTT assay; assay type: functional, cell-based; settings: 4T1, 96 h
[17] = biological target: Proto-oncogene tyrosine-protein kinase receptor Ret (Homo sapiens) (UniProt P07949); assay: Inhibition of RET (unknown origin) by Z'LYTE screening method relative to control; settings: concentration not given here
Chain of Proto-oncogene tyrosine-protein kinase receptor Ret (Homo sapiens) (P07949 whole entry): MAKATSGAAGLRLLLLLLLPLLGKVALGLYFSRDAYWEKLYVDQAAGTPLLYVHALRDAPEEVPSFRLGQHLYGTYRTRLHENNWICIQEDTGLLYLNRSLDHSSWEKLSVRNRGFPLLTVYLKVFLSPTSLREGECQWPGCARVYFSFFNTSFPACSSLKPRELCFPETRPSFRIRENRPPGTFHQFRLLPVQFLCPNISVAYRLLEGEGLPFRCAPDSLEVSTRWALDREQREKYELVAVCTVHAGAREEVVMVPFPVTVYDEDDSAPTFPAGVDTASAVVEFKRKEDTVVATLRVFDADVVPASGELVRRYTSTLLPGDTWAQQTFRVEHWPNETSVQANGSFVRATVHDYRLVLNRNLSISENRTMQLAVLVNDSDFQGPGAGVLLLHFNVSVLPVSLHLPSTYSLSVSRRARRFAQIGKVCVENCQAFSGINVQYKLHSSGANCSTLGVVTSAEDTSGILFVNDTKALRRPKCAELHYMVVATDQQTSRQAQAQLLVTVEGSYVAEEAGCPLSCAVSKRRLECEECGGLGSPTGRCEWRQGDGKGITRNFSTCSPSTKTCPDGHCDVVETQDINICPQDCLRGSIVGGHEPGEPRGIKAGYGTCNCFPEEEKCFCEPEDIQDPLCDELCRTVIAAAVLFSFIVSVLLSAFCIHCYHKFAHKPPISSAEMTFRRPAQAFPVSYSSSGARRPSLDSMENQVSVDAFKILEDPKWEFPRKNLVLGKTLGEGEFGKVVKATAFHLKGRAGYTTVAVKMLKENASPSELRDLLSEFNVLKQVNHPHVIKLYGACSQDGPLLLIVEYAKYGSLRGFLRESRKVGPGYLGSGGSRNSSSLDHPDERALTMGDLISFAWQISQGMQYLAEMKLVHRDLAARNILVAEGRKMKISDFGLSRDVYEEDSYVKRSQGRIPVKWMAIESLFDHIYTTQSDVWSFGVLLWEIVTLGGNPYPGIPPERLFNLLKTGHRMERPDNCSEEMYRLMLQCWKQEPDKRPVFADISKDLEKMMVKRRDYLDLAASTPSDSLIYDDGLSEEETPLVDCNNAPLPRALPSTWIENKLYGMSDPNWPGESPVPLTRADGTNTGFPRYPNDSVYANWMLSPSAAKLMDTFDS

[18] = biological target: Protein kinase C eta type (Homo sapiens, UniProt P24723); assay: Inhibition of PKCeta (unknown origin) by IMAP kinase assay
Chain of Protein kinase C eta type (P24723 whole entry): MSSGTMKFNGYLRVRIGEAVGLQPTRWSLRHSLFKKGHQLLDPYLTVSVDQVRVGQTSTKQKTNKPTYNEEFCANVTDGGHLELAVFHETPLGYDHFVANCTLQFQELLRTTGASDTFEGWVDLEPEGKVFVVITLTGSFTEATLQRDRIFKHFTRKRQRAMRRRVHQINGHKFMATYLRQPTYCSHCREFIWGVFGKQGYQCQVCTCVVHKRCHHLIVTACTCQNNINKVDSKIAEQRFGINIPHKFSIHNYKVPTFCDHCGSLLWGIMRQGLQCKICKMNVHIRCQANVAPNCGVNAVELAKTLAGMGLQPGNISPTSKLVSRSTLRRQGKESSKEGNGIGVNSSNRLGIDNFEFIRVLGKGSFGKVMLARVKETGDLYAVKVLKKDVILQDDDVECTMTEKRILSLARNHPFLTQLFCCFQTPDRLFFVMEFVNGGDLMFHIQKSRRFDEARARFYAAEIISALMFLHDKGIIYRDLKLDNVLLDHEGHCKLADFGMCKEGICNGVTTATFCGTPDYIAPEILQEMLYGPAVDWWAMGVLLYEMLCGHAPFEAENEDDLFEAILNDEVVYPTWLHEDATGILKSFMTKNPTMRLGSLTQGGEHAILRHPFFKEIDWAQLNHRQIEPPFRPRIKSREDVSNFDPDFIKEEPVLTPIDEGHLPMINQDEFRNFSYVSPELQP

| SMILES | inhibition [2] [%] | inhibition [9] [%] | inhibition [10] [%] | inhibition [11] [%] | inhibition [12] [%] | inhibition [13] [%] | inhibition [14] [%] | inhibition [15] [%] | inhibition [16] [%] | IC50 (MDA-MB-231) [nM] | IC50 (4T1) [nM] | also measured |
| --- | --- | --- | --- | --- | --- | --- | --- | --- | --- | --- | --- | --- |
| CN1CCN(c2nc(C3=C(c4c[nH]c5ccccc45)C(=O)NC3=O)c3ccccc3n2)CC1 [SOTRASTAURIN] | 100 | 98 | 98 |  |  |  |  |  |  |  |  | IC50 [1]: 0.22 nM; IC50 [3]: 2.1 nM; inhibition [4]: 76%; inhibition [5]: 76%; IC50 [6]: 3.2 nM; inhibition [7]: 80%; inhibition [8]: 92% |
| O=C(Nc1cccc(Cl)c1)Nc1ncc(CCNc2ncnc3ccsc23)s1 [SNS-314] |  |  |  |  |  |  |  |  |  |  |  | IC50 (Aurora kinase C): 3 nM |
| O=c1c2ccccc2sn1-c1nc(NC2CCCC2)c2nc[nH]c2n1 |  |  |  | 40 | 58 | 7 | 13 | 60 | 65 | 29200 | 25600 |  |
| Cc1cc(Nc2cc(N3CCN(C)CC3)nc(Sc3ccc(NC(=O)C4CC4)cc3)n2)n[nH]1 | 8 | 2 | 6 |  |  |  |  |  |  |  |  | inhibition [17]: 62% |
| O=C(N[C@@H]1CNCCC[C@H]1OC(=O)c1cc(O)c(C(=O)c2c(O)cccc2C(=O)O)c(O)c1)c1ccc(O)cc1 [BALANOL] |  |  |  |  |  |  |  |  |  |  |  | IC50 [18]: 4 nM |
| O=c1c2ccccc2sn1-c1nc(NC2CCSC2)c2nc[nH]c2n1 (configuration not stated) |  |  |  | 85 | 69 | 7 | 81 | 97 | 92 | 10300 | 12200 |  |
